# Results from the supplement of paper PMC11061612.
# What was measured:
# Assay in all cases: Bliss excess, mean over the matrix (fraction); higher = more synergy
# [1] = system: NCI-H3122 (Lung Adenocarcinoma)
# Summary of the method: (§1)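 Cell lines grown in DMEM/F12 or RPMI with 10% FBS were plated in 1536-well plates and held 24 hours at 37°C, 5% CO2 before 72 hours of exposure to two-drug dose matrices, with DMSO typically at 0.2%. CellTiter-Glo 2.0 luminescence gave viability, which was converted to inhibition. Vehicle wells were set to 0 and blank wells to 1. Combination Emax is the second-highest inhibition in the matrix, and Bliss excess is the observed combination effect minus the expected EA + EB − EA·EB, where EA and EB are the single-agent effects.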
# [2] = system: SK-GT-4 (Esophageal Adenocarcinoma)
# Summary of the method: as §1
# [3] = system: NCI-H929 (Plasma Cell Myeloma)
# Summary of the method: as §1
# [4] = system: MOG-G-CCM (Low Grade Glioma)
# Summary of the method: as §1
# [5] = system: KU812 (Chronic Myelogenous Leukemia)
# Summary of the method: as §1
# [6] = system: CW-2 (Colorectal Carcinoma)
# Summary of the method: as §1
# NCI-H2731 (Mesothelioma) = system: NCI-H2731 (Mesothelioma)
# Summary of the method: as §1
# [7] = system: MN-60 (B-Lymphoblastic Leukemia)
# Summary of the method: as §1
# M059J (Glioblastoma) = system: M059J (Glioblastoma)
# Summary of the method: as §1
# [8] = system: NCCIT (Other Solid Carcinomas)
# Summary of the method: as §1
# SJSA-1 (Osteosarcoma) = system: SJSA-1 (Osteosarcoma)
# Summary of the method: as §1
# [9] = system: VMRC-RCZ (Kidney Carcinoma)
# Summary of the method: as §1
# [10] = system: KYSE-270 (Esophageal Squamous Cell Carcinoma)
# Summary of the method: as §1
# [11] = system: OCI-AML3 (Acute Myeloid Leukemia)
# Summary of the method: as §1
# [12] = system: ST486 (Burkitt's Lymphoma)
# Summary of the method: as §1
# [13] = system: T-T (Esophageal Squamous Cell Carcinoma)
# Summary of the method: as §1
# [14] = system: COR-L279 (Small Cell Lung Carcinoma)
# Summary of the method: as §1
# [15] = system: NCI-H526 (Small Cell Lung Carcinoma)
# Summary of the method: as §1
# [16] = system: DMS-114 (Small Cell Lung Carcinoma)
# Summary of the method: as §1
# [17] = system: NCI-H520 (Squamous Cell Lung Carcinoma)
# Summary of the method: as §1
SMILES,Bliss excess [1],Bliss excess [2],Bliss excess [3],Bliss excess [4],Bliss excess [5],Bliss excess [6],Bliss excess (NCI-H2731 (Mesothelioma)),Bliss excess [7],Bliss excess (M059J (Glioblastoma)),Bliss excess [8],Bliss excess (SJSA-1 (Osteosarcoma)),Bliss excess [9],Bliss excess [10],Bliss excess [11],Bliss excess [12],Bliss excess [13],Bliss excess [14],Bliss excess [15],Bliss excess [16],Bliss excess [17]
"C[C@@H](Nc1cc(F)cc(F)c1)c1cc(C(=O)N(C)C)cc2c(=O)cc(N3CCOCC3)oc12 [AZD8186] + CC(=O)c1c(C)c2cnc(Nc3ccc(N4CCNCC4)cn3)nc2n(C2CCCC2)c1=O [Palbociclib] (first compound max 10 µM, 7x7, partner max 10 µM)",0.0528,-0.0649,-0.0272,0.0077,0.0412,0.0464,-0.0036,-0.0082,-0.006,0.0183,-0.0268,0.12,-0.0036,0.0401,0.0478,0.0135,0.147,-0.0207,0.0178,0.111
"CN(CCO)CC[C@H](CSc1ccccc1)Nc1ccc(S(=O)(=O)NC(=O)c2ccc(N3CCC([C@@H](O)c4ccccc4-c4ccc(Cl)cc4)CC3)cc2)cc1S(=O)(=O)C(F)(F)F [AZD4320] + CC(=O)O[C@H]1C(=O)[C@@]2(C)[C@H]([C@H](OC(=O)c3ccccc3)[C@]3(O)C[C@H](OC(=O)[C@H](O)[C@@H](NC(=O)c4ccccc4)c4ccccc4)C(C)=C1C3(C)C)[C@]1(OC(C)=O)CO[C@@H]1C[C@@H]2O [Paclitaxel] (first compound max 1 µM, 7x7, partner max 3 µM)",0.0379,0.0543,-0.0687,0.0506,-0.0252,-0.0328,0.0876,0.0332,0.0756,0.0317,0.0637,0.128,0.0171,0.007,-0.0016,0.0528,0.0141,0.0193,0.0486,0.0142
"C[C@@H](Nc1cc(F)cc(F)c1)c1cc(C(=O)N(C)C)cc2c(=O)cc(N3CCOCC3)oc12 [AZD8186] + C1CN(CCC1(C(=O)N[C@@H](CCO)C2=CC=C(C=C2)Cl)N)C3=NC=NC4=C3C=CN4 [AZD5363] (first compound max 10 µM, 7x7, partner max 10 µM)",0.0211,-0.0478,-0.0035,-0.058,-0.053,-0.0086,-0.0476,-0.0655,-0.0145,0.0368,-0.0208,-0.0134,0.0302,0.031,-0.0265,0.0073,0.0622,-0.0238,0.0545,-0.034
"N#Cc1cnc(Nc2cc(NC[C@H]3CNCCO3)c(C(F)(F)F)cn2)cn1 [SRA737] + C=CCn1c(=O)c2cnc(Nc3ccc(N4CCN(C)CC4)cc3)nc2n1-c1cccc(C(C)(C)O)n1 [AZD1775] (first compound max 10 µM, partner max 1 µM)",0.0718,0.003,0.0295,0.0229,0.0668,0.0162,0.0007,-0.0125,0.073,0.0855,0.0091,0.0259,0.136,0.171,0.0356,0.0665,0.116,0.0145,-0.0231,0.055
"C[C@@H](Oc1cc(-c2cnn(C3CCNCC3)c2)cnc1N)c1c(Cl)ccc(F)c1Cl [Crizotinib] + CC1=C(C(=CC=C1)Cl)NC(=O)C2=CN=C(S2)NC3=CC(=NC(=N3)C)N4CCN(CC4)CCO [Dasatinib] (first compound max 10 µM, 7x7, partner max 2 µM)",-0.0882,0.0033,-0.0147,0.0574,0.0121,-0.0315,0.0443,-0.0074,0.024,-0.0416,-0.0238,0.0518,0.0481,0.0207,0.0506,0.0322,0.0599,-0.0339,-0.0562,0.0375
"O=C(c1cc(Cc2n[nH]c(=O)c3ccccc23)ccc1F)N1CCN(C(=O)C2CC2)CC1 [Olaparib] + COc1nnc2ccc(N3CCC(c4ccc(OCCN5CCN(C)C(=O)[C@H]5C)cc4)CC3)nn12 [AZD5153] (first compound max 10 µM, 7x7, partner max 1 µM)",-0.0021,-0.0894,-0.0516,-0.0569,-0.0778,-0.0592,-0.0208,-0.0721,-0.0672,-0.0739,-0.0323,-0.0243,0.0235,-0.0369,-0.0433,-0.0283,0.0327,-0.0689,-0.13,-0.0134
"O=C(c1cc(Cc2n[nH]c(=O)c3ccccc23)ccc1F)N1CCN(C(=O)C2CC2)CC1 [Olaparib] + CC1(C)CCC(CN2CCN(c3ccc(C(=O)NS(=O)(=O)c4ccc(NCC5CCOCC5)c([N+](=O)[O-])c4)c(Oc4cnc5[nH]ccc5c4)c3)CC2)=C(c2ccc(Cl)cc2)C1 [Venetoclax] (first compound max 10 µM, 7x7, partner max 1 µM)",-0.0681,-0.056,-0.0036,-0.0459,-0.0241,-0.0299,-0.047,-0.0502,-0.0001,0.0127,-0.0375,-0.052,-0.0027,0.0202,-0.0134,-0.0375,0.0109,0.0372,-0.0446,-0.0201
"CS(=O)(=O)CCNCc1ccc(-c2ccc3ncnc(Nc4ccc(OCc5cccc(F)c5)c(Cl)c4)c3c2)o1 [Lapatinib] + NC1(c2ccc(-c3nc4ccn5c(=O)[nH]nc5c4cc3-c3ccccc3)cc2)CCC1 [MK-2206] (first compound max 10 µM, 7x7, partner max 10 µM)",-0.0497,0.0402,-0.0278,-0.0681,-0.0194,-0.0434,0.0201,0.0332,-0.0047,-0.0143,-0.0402,0.0019,0.0262,0.0739,0.0266,-0.0168,0.0229,0.0254,0.0721,0.0011
"C[C@@H]1COCCN1c1cc(C2([S@](C)(=N)=O)CC2)nc(-c2ccnc3[nH]ccc23)n1 [AZD6738] + C1CC(C1)(C(=O)[O-])C(=O)[O-].N.N.[Pt+2] [Carboplatin] (first compound max 10 µM, 7x7, partner max 10 µM)",-0.0999,-0.0516,-0.0536,-0.0204,-0.0691,-0.0212,-0.0109,-0.119,-0.0647,-0.0274,-0.0152,-0.0249,0.0445,-0.0326,-0.0501,-0.0661,-0.0178,-0.0076,-0.095,-0.0017
"Cc1nc(-c2cn3c(n2)-c2ccc(-c4cnn(C(C)(C)C(N)=O)c4)cc2OCC3)n(C(C)C)n1 [Taselisib] + O=C(Nc1ccc2[nH]nc(-c3ccncc3)c2c1)[C@@H]1CCN(CC(=O)N2CCN(c3ccc(-c4ncccn4)cc3)CC2)C1 [SCH772984] (first compound max 10 µM, 7x7, partner max 5 µM)",0.126,0.0428,0.0344,-0.0727,0.0569,0.0458,0.0323,-0.026,0.0027,-0.032,0.0019,0.0004,0.0577,0.0661,0.0569,0.133,0.0833,0.0117,0.005,0.0461
"Cc1c2c(nn1C)CSCc1cc(n(C)n1)CSc1cc(c3ccccc3c1)OCCCc1c(C(=O)O)n(C)c3c-2c(Cl)ccc13 [AZD5991] + CC(=O)O[C@H]1C(=O)[C@@]2(C)[C@H]([C@H](OC(=O)c3ccccc3)[C@]3(O)C[C@H](OC(=O)[C@H](O)[C@@H](NC(=O)c4ccccc4)c4ccccc4)C(C)=C1C3(C)C)[C@]1(OC(C)=O)CO[C@@H]1C[C@@H]2O [Paclitaxel] (first compound max 1 µM, 7x7, partner max 3 µM)",-0.0003,-0.0197,-0.0219,0.0341,-0.108,-0.0199,0.0237,-0.0293,-0.0193,0.0449,-0.0168,-0.0234,-0.0116,0.0141,-0.0046,-0.0016,0.0035,0.0061,0.0975,-0.0478
"CC1(C)CCC(CN2CCN(c3ccc(C(=O)NS(=O)(=O)c4ccc(NCC5CCOCC5)c([N+](=O)[O-])c4)c(Oc4cnc5[nH]ccc5c4)c3)CC2)=C(c2ccc(Cl)cc2)C1 [Venetoclax] + CS(=O)(=O)CCNCc1ccc(-c2ccc3ncnc(Nc4ccc(OCc5cccc(F)c5)c(Cl)c4)c3c2)o1 [Lapatinib] (first compound max 1 µM, 7x7, partner max 10 µM)",-0.0229,-0.0436,-0.0098,-0.0568,0.0282,-0.0116,-0.0257,-0.0502,-0.0225,-0.024,-0.002,-0.047,-0.0175,0.01,0.0224,-0.0066,-0.0185,0.105,-0.0443,-0.0169
"O=C(c1cc(Cc2n[nH]c(=O)c3ccccc23)ccc1F)N1CCN(C(=O)C2CC2)CC1 [Olaparib] + CN(CC[C@H](CSC1=CC=CC=C1)NC2=C(C=C(C=C2)S(=O)(=O)NC(=O)C3=CC=C(C=C3)N4CCC(CC4)[C@H](C5=CC=CC=C5C6=CC=C(C=C6)Cl)O)S(=O)(=O)C(F)(F)F)CCO [AZD4320] (first compound max 10 µM, 7x7, partner max 1 µM)",-0.0184,-0.0508,-0.0336,-0.0282,-0.0517,-0.0353,-0.0491,-0.044,-0.0174,-0.0075,-0.0509,-0.064,-0.0221,0.057,-0.0192,-0.0174,0.0282,0.0311,-0.0971,-0.0283
"N#Cc1cnc(Nc2cc(NC[C@H]3CNCCO3)c(C(F)(F)F)cn2)cn1 [SRA737] + O=c1[nH]cc(F)c(=O)[nH]1 [5-Fluorouracil] (first compound max 10 µM, 7x7, partner max 20 µM)",0.0315,-0.0187,0.0184,-0.001,-0.0726,0.0039,-0.0374,-0.0751,0.0052,-0.0561,0.0126,-0.0163,0.127,0.0646,0.0098,0.0483,0.077,0.0854,-0.0757,-0.0306
